How the values were obtained:
[1] = tested on: Staphylococcus aureus (S. aureus) 11540 strain; assay: Standard microdilution MIC assay, S. aureus; assay type: cell-based
Method: (§1) The in vitro activity of the compounds of the present disclosure can be determined. Antimicrobial testing is typically performed to determine the minimum inhibitory concentration (MIC). Minimum inhibitory concentrations (MICs) are determined by the microdilution method in a final volume of 100 μl according to protocols outlined by The Clinical and Laboratory Standards Institute (CLSI). Performance standards for reference strains are assessed within the same experimental design to maintain quality control. See, for example, Clinical Laboratory Standards Institute: Methods for dilution antimicrobial susceptibility tests for bacteria that grow aerobically M7-A8. Approved Standard-Eighth Edition. Wayne, PA: CLSI; December 2008; and Clinical Laboratory Standards Institute: Performance Standards for Antimicrobial Susceptibility Testing M100-S20; Approved Standard-Twentieth Edition. Wayne, PA: CLSI; June 2010.
(§2) The compounds of the present disclosure were tested for antimicrobial activity. The Compounds 1-293 were run against Escherichia coli (E co/i) strain ATCC25922 and against Staphylococcus aureus (S. aureus) 11540 strain using a standard microdilution assay to determine minimum inhibitory concentrations (MICs). […] It will be recognized by one skilled in the art that the compounds can be assessed against other bacterial organisms and that the presentation of data for activity against Escherichia coli and Staphylococcus aureus are illustrative and in no way is intended to limit the scope of the present disclosure. The compounds of the present disclosure can be assayed against a range of other microorganisms depending upon the performance activity desired to be gathered. Furthermore, the “+” and “−” representation and the selection of a cutoff value of 16 micrograms/mL is also illustrative and in no way is intended to limit the scope of the present disclosure.

[2] = tested on: Escherichia coli strain ATCC25922; assay: Standard microdilution MIC assay, E. coli; assay type: cell-based
Method: as §1, §2

Row | Compound | MIC [1] [µg/mL] | MIC [2] [µg/mL]
1 | C=C[C@@H](CCNC(C)=N)NCc1ccc(-n2cc3cc(-c4cc(CCC[C@H](N)C(F)F)cc(Cl)c4F)[nH]c3nc2=O)cc1 [Compound 142] | ≤ 16 | ≤ 16
2 | CC(=N)NCC[C@@H]1CCC[C@@H](c2ccc(-n3cc4cc(-c5cc(CCC[C@@H](N)CF)cc(C(F)(F)F)c5F)[nH]c4nc3=O)cc2)N1 [Compound 193] | ≤ 16 | ≤ 16
3 | COC[C@@H](CCNC(C)=N)NCc1ccc(-n2cc3cc(-c4cc(CCC[C@@H](N)CF)cc(Cl)c4F)[nH]c3nc2=O)cc1 [Compound 188] | ≤ 16 | ≤ 16
4 | C=CC(CCNC(C)=N)NCc1ccc(-n2cc3cc(-c4cc(CCC[C@@H](N)C(F)(F)F)cc(Cl)c4F)[nH]c3nc2=O)cc1 (some centres unmarked) [Compound 11] | ≤ 16 | > 16
5 | CC(=N)NCC[C@@H]1CCC[C@@H](c2ccc(-n3cc4cc(-c5cc(CCC[C@H](C)N)cc(C(F)(F)F)c5)[nH]c4nc3=O)cc2F)N1CCCF [Compound 328] | ≤ 16 | ≤ 16
6 | CC(=N)N[C@@H](C)C[C@@H]1CCC[C@@H](c2ccc(-n3cc4cc(-c5cc(CCC[C@H](C)N)cc(Cl)c5F)[nH]c4nc3=O)cc2)N1 [Compound 253] | ≤ 16 | ≤ 16
7 | C[C@H](N)CCCc1cc(Cl)c(F)c(-c2cc3cn(-c4ccc([C@H](C)N[C@@H](CO)CCNC(=N)CF)cc4)c(=O)nc3[nH]2)c1 [Compound 97] | ≤ 16 | ≤ 16
8 | CC(=N)NCC[C@@H]1CNC[C@@H](c2ccc(-n3cc4cc(-c5cc(CCC[C@H](C)N)cc(Cl)c5F)[nH]c4nc3=O)cc2)O1 [Compound 32] | ≤ 16 | ≤ 16
9 | CC(=N)NCC[C@@H]1CCC[C@@H](c2ccc(-n3cc4cc(-c5cc(CCC[C@@H](N)CF)cc(C(F)(F)F)c5F)[nH]c4nc3=O)cc2F)N1 [Compound 221] | ≤ 16 | ≤ 16
10 | CC(=N)NCCCNC1(c2ccc(-n3cc4cc(-c5cc(CCC[C@H](C)N)cc(Cl)c5F)[nH]c4nc3=O)cc2)CC1 [Compound 145] | ≤ 16 | ≤ 16

Second part, the compound after the results:

Row | MIC [1] [µg/mL] | MIC [2] [µg/mL] | Compound
11 | ≤ 16 | ≤ 16 | N=C(CF)NCC[C@@H]1COC[C@@H](c2ccc(-n3cc4cc(-c5cc(CCC[C@@H](N)CO)cc(Cl)c5F)[nH]c4nc3=O)cc2)N1 [Compound 55]
12 | ≤ 16 | ≤ 16 | C=C[C@H](N)CCCc1cc(Cl)c(F)c(-c2cc3cn(-c4cc(F)c([C@@H]5CCC[C@@H](CCNC(C)=N)N5)c(SC)c4)c(=O)nc3[nH]2)c1 [Compound 274]
13 | ≤ 16 | ≤ 16 | COC[C@H](N)CCCc1cc(OC(F)(F)F)c(F)c(-c2cc3cn(-c4ccc([C@@H]5CCC[C@@H](CCNC(C)=N)N5)c(OC)c4)c(=O)nc3[nH]2)c1 [Compound 197]
14 | ≤ 16 | ≤ 16 | CC(=N)NCC[C@@H]1CCC[C@@H](c2ccc(-n3cc4cc(-c5cc(CCC[C@H](C)N)cc(Cl)c5F)[nH]c4nc3=O)cc2F)N1CCCF [Compound 325]
15 | ≤ 16 | ≤ 16 | CC(=N)NCC[C@@H](NCc1ccc(-n2cc3cc(-c4cc(CCC[C@@H](N)CF)cc(C(F)(F)F)c4F)[nH]c3nc2=O)cc1)C1CC1 [Compound 230]
16 | ≤ 16 | ≤ 16 | COc1ccc(CCC[C@H](C)N)cc1-c1cc2cn(-c3ccc([C@@H]4CCC[C@@H](CCNC(C)=N)N4)cc3)c(=O)nc2[nH]1 [Compound 377]
17 | ≤ 16 | ≤ 16 | CC(=N)NCC[C@H](CO)NCc1ccc(-n2cc3cc(-c4cc(CCCC(C)(C)N)cc(Cl)c4F)[nH]c3nc2=O)cc1 [Compound 40]
18 | ≤ 16 | ≤ 16 | CC(=N)NCC[C@@H]1CCC[C@@H](c2c(F)cc(-n3cc4cc(-c5cc(CCC[C@@H](N)CF)cc(Cl)c5F)[nH]c4nc3=O)cc2F)N1 [Compound 279]
19 | ≤ 16 | ≤ 16 | CC(=N)NCCCN[C@@H](C)c1ccc(-n2cc3cc(-c4cc(CCC[C@@H](N)CO)cc(Cl)c4F)[nH]c3nc2=O)cc1F [Compound 113]
20 | ≤ 16 | ≤ 16 | COC[C@H](N)CCCc1cc(-c2cc3cn(-c4ccc([C@@H]5CCC[C@@H](CCNC(C)=N)N5)c(F)c4)c(=O)nc3[nH]2)cc(C(F)(F)F)c1 [Compound 201]
21 | ≤ 16 | ≤ 16 | C=C[C@@H](CCNC(C)=N)N[C@@H](C)c1ccc(-n2cc3cc(-c4cc(CCC[C@@H](N)CF)cc(Cl)c4F)[nH]c3nc2=O)cc1 [Compound 150]
22 | ≤ 16 | ≤ 16 | C[C@H](N)CCCc1cc(Cl)c(F)c(-c2cc3cn(-c4ccc(CN[C@@H](CN)CCNC(=N)CF)cc4)c(=O)nc3[nH]2)c1 [Compound 20]

From patent US11999739B2, “Antimicrobials methods of making and using the same” (BIOVERSYS AG, priority 2016, dated 2024)
